The values that follow come from ChEMBL document CHEMBL1131812, “Novel conformationally restricted tetracyclic analogs of delta8-tetrahydrocannabinol” (Bioorg Med Chem Lett, 1999).

Test [1] addresses Cannabinoid receptor 2 (Mus musculus, UniProt P47936). Briefly: Binding affinity towards Cannabinoid receptor 2 in mouse spleen membranes. In kind it is cell membranes.
In test [2] the target is Cannabinoid receptor 1 (Rattus norvegicus, UniProt P20272). Briefly: Binding affinity towards cannabinoid receptor 1 in rat forebrain membranes. In kind it is cell membranes.

One may read the Ki as the equilibrium dissociation constant of an inhibitor or competing ligand from its target.

Sequence of Cannabinoid receptor 1 (P20272 whole entry): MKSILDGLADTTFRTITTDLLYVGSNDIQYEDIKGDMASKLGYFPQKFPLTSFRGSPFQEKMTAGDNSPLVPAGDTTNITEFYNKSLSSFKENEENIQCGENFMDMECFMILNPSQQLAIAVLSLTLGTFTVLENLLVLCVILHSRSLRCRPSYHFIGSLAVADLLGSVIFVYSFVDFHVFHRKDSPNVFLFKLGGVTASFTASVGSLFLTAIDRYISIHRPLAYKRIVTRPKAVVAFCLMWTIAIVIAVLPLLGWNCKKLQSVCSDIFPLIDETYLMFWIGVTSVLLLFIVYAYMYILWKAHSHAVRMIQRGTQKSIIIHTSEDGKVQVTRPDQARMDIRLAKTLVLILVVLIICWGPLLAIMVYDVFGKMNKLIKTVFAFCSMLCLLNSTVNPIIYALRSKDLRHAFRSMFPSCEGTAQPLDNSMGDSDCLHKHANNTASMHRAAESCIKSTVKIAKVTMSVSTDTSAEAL
Sequence of Cannabinoid receptor 2 (P47936 whole entry): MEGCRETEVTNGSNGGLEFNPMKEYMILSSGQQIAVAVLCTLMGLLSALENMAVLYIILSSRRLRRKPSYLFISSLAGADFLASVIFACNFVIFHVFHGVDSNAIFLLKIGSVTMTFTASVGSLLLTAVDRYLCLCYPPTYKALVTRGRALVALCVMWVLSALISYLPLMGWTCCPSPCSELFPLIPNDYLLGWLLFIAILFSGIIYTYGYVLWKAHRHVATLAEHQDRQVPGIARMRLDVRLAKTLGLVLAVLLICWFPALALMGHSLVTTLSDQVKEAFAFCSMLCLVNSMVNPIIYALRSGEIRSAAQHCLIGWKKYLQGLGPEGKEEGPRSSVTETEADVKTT

With `CCCCCCC1CCCc2c1cc1c(c2O)[C@@H]2CC(C)=CC[C@H]2C(C)(C)O1` (stereo partly drawn), the Ki was determined as 58.6 nM in test [1] and 22.3 nM in test [2].

As to `CCCCCC1CCc2c(cc3c(c2O)[C@@H]2CC(C)=CC[C@H]2C(C)(C)O3)C1` (stereo partly drawn), the Ki in test [1] worked out at 162 nM; in test [2], 402 nM.

For `CCCCCCC1CCCc2c1cc(O)c1c2OC(C)(C)[C@@H]2CC=C(C)C[C@@H]12` (stereo partly drawn), the figures for the Ki in test [1] and in test [2] were 456 nM and 542 nM, respectively.

With `CCCCCCCc1cc(O)c2c(c1)OC(C)(C)[C@@H]1CC=C(C)C[C@@H]21`, the values for the inhibition constant (Ki) in test [1] and in test [2] were 0.39 nM and 0.43 nM, respectively.
